Data: patent publication US11021541B2, “Method of inhibiting the gonadotropin-releasing hormone (GnRH) receptor by administering a GHR-106 monoclonal antibody” (Vancouver Biotech Ltd., priority 2018, dated 2021)
Read-outs that look alike come from different tables or passages of the source. Where a SMILES comes first, the peptide text is derived from it. [ ]: non-standard residue; d: D form. dPhe(4-Cl) = N[C@H](Cc1ccc(Cl)cc1)C(=O)O; d2Nal = N[C@H](Cc1ccc2ccccc2c1)C(=O)O; dCit = NC(=O)NCCC[C@@H](N)C(=O)O; d3Pal = N[C@H](Cc1cccnc1)C(=O)O

Legend:
[1] = cited from earlier work; for Estimated Half Life: estimated circulation half-life
[2] = test system: GnRH receptors expressed on the surface of cultured cancer cells (OC-3-VGH); test: Competitive binding assay on microwells coated with OC-3-VGH cancer cells; set-up: species or system human; conditions: for competition with mGHR106 binding to OC-3-VGH coated microwells: FIG. 1A, mGHR106 0.50 or 0.25 μg/ml; for competition with hGHR106 binding to OC-3-VGH coated microwells: FIG. 1B, peptides each at 1 μg/mL
Protocol: Competitive binding assays were carried out according to accepted protocols, e.g. as described in U.S. Pat. No. 8,361,793. […] The N1-29 oligopeptides are derived from the N-terminal extracellular domains of GnRH receptors from each species. The amino acid sequence of each of Hu-P, Mo-P and Mu-P are shown as SEQ ID NO:1, SEQ ID NO:2 and SEQ ID NO:3 respectively in FIG. 3.
The white bars and black bars in FIG. 1A represent the different concentrations of mGHR106 (0.50 μg/ml and 0.25 μg/ml, respectively) used in each assay. […] Goat anti-human IgG-ALP (alkaline phosphatase labeled) was used as the probe, with error bars for duplicate assays indicated.

[3] = test system: OC-3-VGH cancer cells; test: Comparative gene regulation study in cancer cells; format: cell-based, human; conditions: FIG. 4; upon ligand treatment of cancer cells
From the text: Comparative gene regulation upon administration of hGHR106 or the decapeptide GnRH analog antide was examined using conventional protocols, e.g. as described in U.S. Pat. No. 8,361,793. […] Expressions of a number of selected genes involved in the proliferation or survival of cancer cells were compared. The selected genes include: GnRH, GnRHR, P0, P1, P2, L37, and EGF, c-fos, P21 and cyclin D1. P0, P1, P2, and L37 are ribosomal proteins.

[4] = test system: OC-3-VGH, PC-3, A549 and MDA-MB-435 cancer cells; test: TUNEL apoptosis assay of cultured and treated cancer cells; format: cell-based; conditions: co-incubation 24 to 72 hours, compared on a molar basis, FIGS. 2A and 2B
Protocol: In order to compare the anti-proliferative effects (or apoptosis) between mGHR106 or hGHR106 and antide on cancer cells, In Situ Cell Death Detection Kit, POD (Roche, Canada) was employed for detection and quantitation of apoptosis of cultured and treated cancer cells in vitro. Briefly cancer cells were cultured in RPMI-1640 medium at 37° C. in a CO2 (5%) incubator for 24 and/or 48 hours until all cancer cells are attached to microwells. Following removal of cell culture medium, fresh serum-free medium was added for an additional 3 hours incubation in a CO2 incubator.
After the serum-free starvation period, the cells were incubated in fresh medium containing 10% fetal calf serum, and hGHR106, mGHR106 or antide of known concentration was added for co-incubation of 24 to 72 hours. As the negative control, normal mouse IgG or normal human IgG of the same concentration was used for the same incubation period.
At the end of incubation, the attached cells were removed from tissue culture wells by appropriate cell detachment solution. Apoptosis of treated cancer cells was quantitatively determined by TUNEL assay with the instructions provided by Cell Death Detection Kit, POD (Roche, Canada). Percent increases of cells with apoptosis after treatments with any one of hGHR106, mGHR106 and antide were obtained by subtracting spontaneous apoptosis from the negative control. […]

[5] = clinically used antibodies and GnRH decapeptide analogs

Compound | Estimated Half Life [1, 5] [h] | competition with mGHR106 binding to OC-3-VGH coated microwells [2] | competition with hGHR106 binding to OC-3-VGH coated microwells [2] | other results
Beracizumab | 480 |  |  | 
CC(=O)N[C@H](Cc1ccc2ccccc2c1)C(=O)N[C@H](Cc1ccc(Cl)cc1)C(=O)N[C@H](Cc1cccnc1)C(=O)N[C@@H](CO)C(=O)N[C@@H](Cc1ccc(O)cc1)C(=O)N[C@H](CCCNC(N)=O)C(=O)N[C@@H](CC(C)C)C(=O)N[C@@H](CCCNC(=N)N)C(=O)N1CCC[C@H]1C(=O)N[C@H](C)C(N)=O [Cetrorelix] (Ac-[d2Nal][dPhe(4-Cl)][d3Pal]SY[dCit]LRP[dA]-NH2) | 10 to 63 |  |  | 
Luprorelin | 3 |  |  | 
Gonadotropin-releasing hormone [Native GnRH] |  |  |  | Estimated Half Life ([1]; native GnRH): 0.033 to 0.067 h; half-life in human circulation ([1]; human circulation): 2 to 4 min
Mu-P: N1-29 oligopeptide of N-terminal extracellular domain of mouse GnRH receptor, SEQ ID NO:3 (MANSASPEQNQNHCSAINNSIPLMQGNLPT; listed as Homo sapiens) |  | not | not | 
Mo-P: N1-29 oligopeptide of N-terminal extracellular domain of monkey GnRH receptor, SEQ ID NO:2 (MANSALPEQNQNHCSVINNSIPLMQGNLPT; Pan troglodytes) |  | compete | compete | 
Hu-P: N1-29 oligopeptide of N-terminal extracellular domain of human GnRH receptor, SEQ ID NO:1 (MANNASLEQDPNHCSAINNSIPLIQGKLPT; listed as Mus musculus) |  | compete | compete | 
Panitumumab | 180 |  |  | 
antide |  |  |  | Cyclin D1 expression [3]: downregulated; EGF expression [3]: downregulated; GnRH expression (up-regulation) [3]: 50%; expression of the GnRH receptor (GnRHR) [3]: unchanged; induced apoptosis (percent increase of cells with apoptosis) [4]: very similar degrees of induced apoptosis
